US20100105764A1 (priority 2006, published 2010)
Read-outs that look alike come from different tables or passages of the source.

Experiments:
[1] = molecular target: T1, E1-STS (Homo sapiens, UniProt P08842); set-up: E1-STS activity in intact MCF-7 cells; endogenous in cells; host or cells: MCF-7 cells (intact); settings: intact MCF-7 cells, at 0.1 nM; cited from earlier work
T1 sequence (P08842 22-583): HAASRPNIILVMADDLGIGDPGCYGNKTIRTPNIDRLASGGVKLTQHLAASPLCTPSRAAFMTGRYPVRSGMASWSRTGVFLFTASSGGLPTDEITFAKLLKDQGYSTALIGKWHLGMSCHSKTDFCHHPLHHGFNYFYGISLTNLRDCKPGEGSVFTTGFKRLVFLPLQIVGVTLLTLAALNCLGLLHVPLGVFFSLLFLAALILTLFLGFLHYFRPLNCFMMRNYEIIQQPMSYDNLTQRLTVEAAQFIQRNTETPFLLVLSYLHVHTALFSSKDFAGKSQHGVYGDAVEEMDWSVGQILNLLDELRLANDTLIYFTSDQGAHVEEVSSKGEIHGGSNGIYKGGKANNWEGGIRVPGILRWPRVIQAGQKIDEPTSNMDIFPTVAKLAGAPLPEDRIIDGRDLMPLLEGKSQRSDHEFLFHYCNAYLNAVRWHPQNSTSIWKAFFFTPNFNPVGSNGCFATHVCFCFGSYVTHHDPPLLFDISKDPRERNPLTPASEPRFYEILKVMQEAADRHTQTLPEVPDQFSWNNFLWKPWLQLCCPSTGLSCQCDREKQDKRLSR

[2] = molecular target: T1, E1-STS; settings: cited from earlier work
[3] = rats; cited from earlier work
[4] = molecular target: T2, dehydroepiandrosterone sulphatase (DHEA-STS) (Homo sapiens, UniProt P08842); settings: cited from earlier work
T2 sequence (P08842 22-583): T1 sequence (P08842 22-583)

[5] = Phase I trial: serum steroid levels; format: in vivo; settings: postmenopausal women with breast cancer
Source text: The assay for the determination of androstenedione, testosterone, E1 and E2 was the gas chromatographic tandem mass spectroscopic method of Wang et al., (2005). Recombinant cell ultra-sensitive bioassay for measurements of estrogens in postmenopausal women J Clin Endocrinol Metab 90: 1407-1413, 2005.
In addition to the aromatase pathway for the synthesis of estrogens in postmenopausal women, the sulfatase route is also important of the formation of steroids with potent estrogenic properties. Steroid sulfatase (STS) is responsible for the hydrolysis of estrone sulfate (E1S) and dehydroepiandrosterone sulfate (DHEAS) to estrone (E1) and DHEA respectively, which can be reduced in the body to estradiol (E2) and androstenediol (Adiol), both of which have potent estrogenic properties (FIGS. 3 & 4; reviewed in Reed et al., Endocrine Reviews, 256:171-202, 2005). […] This provides evidence for an aromatase independent pathway.

[6] = format: in vivo, mice
Experimental: (§1) Ovariectomised, athymic female MF-1 nude mice (nu/nu) (age 6-8 weeks) were obtained from Harlan Olac. Twenty four hours before the inoculation of MCF-7 cells animals were injected s.c. with androstenedione (A4) or estradiol sulfate (E2S). On the day of inoculation MCF-7 cells (50 μl in Matrigel) were injected s.c. into the flanks of mice. After cell inoculation mice were injected with A4 and E2S and received another injection of these steroids 24 h later. Mice then received A4 plus E2S 3 times per week until the end of the study. When tumours had reached approximately 80 mm^3 dosing was initiated with compounds being administered orally (100 μl; vehicle 10% THF: 90% propylene glycol). Tumour measurements and the weight of animals were recorded weekly.
(§2) This study was similar to the previous one with the exception that MCF-7STS or MCF-7AROM cells (1×10^7) were inoculated into different flanks of the same animals. The doses of A4 and E2S were increased to 100 μg for each compound.

[7] = test system: tumours derived from MCF 7STS cells; format: in vivo; settings: initial experiments, nude mice, FIG. 5
[8] = test system: tumours derived from MCF-7STS cells; experiment: Study 2: growth of tumours derived from MCF-7STS cells in nude mice; format: in vivo; settings: Study 2, A4 plus E2S stimulated; oral administration; letrozole 0.1 mg/kg; FIGS. 9-11
Experimental: as §1
(§3) MCF-7 cells were routinely cultured in RPMI with 10% FCS. The cDNAs for either the aromatase or STS were cloned into the pCl-Neo vector which contains the neomycin resistant gene and transfected into MCF-7 cells. Stable clones were selected using G418 and cell lines established and evaluated for enzyme expression and activity.
as §2

[9] = molecular target: T3, STS (Homo sapiens, UniProt P08842); experiment: Phase I trial: STS activity in peripheral and tumour tissues; format: in vivo; settings: postmenopausal women with breast cancer
T3 construct: STS activity in peripheral and tumour tissues in postmenopausal women with breast cancer; from tissue; host or cells: peripheral and breast tumour tissues of patients
T3 sequence (P08842 22-583): T1 sequence (P08842 22-583)
Source text: In addition to the aromatase pathway for the synthesis of estrogens in postmenopausal women, the sulfatase route is also important of the formation of steroids with potent estrogenic properties. Steroid sulfatase (STS) is responsible for the hydrolysis of estrone sulfate (E1S) and dehydroepiandrosterone sulfate (DHEAS) to estrone (E1) and DHEA respectively, which can be reduced in the body to estradiol (E2) and androstenediol (Adiol), both of which have potent estrogenic properties (FIGS. 3 & 4; reviewed in Reed et al., Endocrine Reviews, 256:171-202, 2005).

[10] = test system: tumours derived from MCF-7AROM cells; experiment: Study 2: growth of tumours derived from MCF-7AROM cells in nude mice; format: in vivo; settings: Study 2, A4 plus E2S stimulated; oral administration; letrozole 0.1 mg/kg; FIGS. 9-11
Experimental: as §1, §3, §2

[11] = format: in vivo; settings: for toxic effects (animal growth): Study 1, FIG. 7
Experimental: as §1
For this study MCF-7 cells over-expressing aromatase or STS were mixed and inoculated (5×10^6 cells) in Matrigel into the flanks of nude mice. A similar number of MCF-7WT cells were inoculated into the other flank. For this study growth of tumours was stimulated by s.c. injection of A4 (50 μg) and E2S (50 μg) in 50 μl vehicle.

[12] = test system: MCF-7STS+MCF-7AROM tumours; experiment: Study 1: MCF-7STS+MCF-7AROM tumour growth in nude mice; format: in vivo; settings: Study 1, A4 plus E2S stimulated; oral; letrozole 0.1 mg/kg, STX213 10 mg/kg p.o. 5/7 per week; FIG. 6
Experimental: as §1, §3
(§4) For this study MCF-7 cells over-expressing aromatase or STS were mixed and inoculated (5×10^6 cells) in Matrigel into the flanks of nude mice. A similar number of MCF-7WT cells were inoculated into the other flank. […]

[13] = test system: MCF-7WT tumours; experiment: Study 1: MCF-7WT tumour growth in nude mice; format: in vivo; settings: Study 1, A4 plus E2S stimulated; oral; letrozole 0.1 mg/kg, STX213 10 mg/kg p.o. 5/7 per week; FIG. 6
Experimental: as §1, §3, §4

## CC12CCC3c4ccc(OS(N)(=O)=O)cc4CCC3C1CCC2=O (stereo not shown) [EMATE, oestrone-3-sulphamate]
[1]
  inhibition of E1-STS activity: more than 99%
[2]
  mode of E1-STS inhibition (inactivation): time- and concentration-dependent manner
[3]
  effect on memory: memory enhancing effect
[4]
  inhibition of DHEA-STS: also inhibits

## NS(=O)(=O)Oc1ccc2c3c(c(=O)oc2c1)CCCCC3 [STX64]
[5]
  levels of androstenedione: reduced
  levels of testosterone: reduced
  serum oestrogen concentrations: reducing serum oestrogen concentrations
[6]; Study 2, FIG. 12
  tolerability, effects on animal weight: well tolerated with no effects on animal weight
[7]
  growth of tumours derived from MCF 7STS cells: could be inhibited
[8]
  growth of tumours derived from MCF-7STS cells: significant inhibition
[9]
  STS activity in peripheral and tumour tissues: effectively blocked STS activity
[10]
  growth of tumours derived from MCF-7AROM cells: significant inhibition

## CCCN1C(=O)CC2C3CCc4cc(OS(N)(=O)=O)ccc4C3CC[C@]2(C)C1=O (stereo partly shown) [STX213]
[11]
  toxic effects (animal growth): Neither STX213 nor letrozole appeared to have any toxic effects
[11]; Study 1, at the dose tested, FIG. 7
  toxicity as shown by body weight: devoid of any toxicity
[12]
  growth of MCF-7STS+MCF-7AROM tumours: significantly reduced the growth
[7]
  growth of tumours derived from MCF 7STS cells: could be inhibited
[13]
  growth of MCF-7WT tumours: significantly reduced the growth

## N#Cc1ccc(C(c2ccc(C#N)cc2)n2cncn2)cc1 [letrozole, reference compound]
[11]
  toxic effects (animal growth): Neither STX213 nor letrozole appeared to have any toxic effects
[12]
  growth of MCF-7STS+MCF-7AROM tumours: some reduction of tumour growth
[6]; mouse, in vivo
  tolerability, effects on animal weight: well tolerated with no effects on animal weight
[13]
  growth of MCF-7WT tumours: some reduction of tumour growth
[8]
  growth of tumours derived from MCF-7STS cells: did not affect the growth
[10]
  growth of tumours derived from MCF-7AROM cells: significant inhibition

## oestrone-3-N-sulphamate
[2]
  mode of E1-STS inhibition (inactivation): weaker non-time-dependent inactivators

## oestrone-3-S-sulphamate
[2]
  mode of E1-STS inhibition (inactivation): weaker non-time-dependent inactivators
